PMC6344228 (Cell Chemical Biology, 2019)
“And” between values parts separate entries of the source, which are not always exact repeats. Equal values may be shown once. Read-outs that look alike come from different tables or passages of the source. Each block holds one compound with its values, some of them ahead of it.

How the values were obtained:
monomeric CDK1 = target: T1, monomeric CDK1 (Homo sapiens, UniProt P06493); assay: Differential scanning fluorimetry (DSF), CDK1; type: binding; details: read-out: ΔTm CDK1
T1 construct: Full-length human CDK1 was expressed in insect cells either untagged (from pVL1393) or as a 3C-protease cleavable GST fusion; GST (N, cleaved yes); made in house; host or cells: insect cells (Sf9 baculovirus)
Description: (§1) The stability of the CDK1 and CDK2 inhibitor complexes were assessed by differential scanning fluorimetry (DSF) using a ViiA7 Real-Time PCR system (Applied Biosystems). Purified CDK1 (4 μM) and CDK2 (6 uM) in their respective gel filtration buffers were assayed in the presence of 10 μM inhibitor in 8% DMSO, in triplicate, in a 384-well plate. […] The resulting data was plotted and the inflection point (Tm) calculated using the Boltzmann equation in Applied Biosystems software.

CDK1-cyclin B [1] = details: read-out: IC50 Published measurements CDK1B; scintillation proximity assay; ref Whittaker et al., 2017; Byth et al., 2009; cited from earlier work
monomeric CDK2 = target: T2, monomeric CDK2 (Homo sapiens, UniProt P24941); assay: biochemical; type: binding; details: DSF; phosphorylated monomeric CDK2; 10 μM inhibitor
T2 construct: Human CDK2 (encompassing full length residues 1-298); GST (N, cleaved yes); made in house; host or cells: E. coli
Description: as §1

CDK1-cyclin B [2] = details: radiolabelled γ33P-ATP kinase assay, read-out: IC50 Published measurements CDK1B, cited from earlier work
CDK1-cyclin B [3] = target: T3, CDK1-cyclin B (Homo sapiens, UniProt P06493); assay: biochemical; type: binding; details: phosphorylated CDK1-cyclin B complex; 30°C; n = 2, ± SD; read-out: ITC Kd CDK1B
T3 construct: Full-length human CDK1 was expressed in insect cells either untagged (from pVL1393) or as a 3C-protease cleavable GST fusion; GST (N, cleaved yes); made in house; host or cells: CDK1: insect cells (Sf9 baculovirus); cyclin B1: E. coli
Description: (§2) Individual protein samples were exchanged into ITC buffer (40 mM HEPES, 500 mM NaCl, 0.25 mM TCEP, pH 8.0) at 4°C using a Hitrap desalting column (GE Healthcare Life Sciences, Chicago, IL, USA) (i.e. CDK1 and cyclin B were not combined to form a complex prior to buffer exchange). Protein concentration was then determined at A280 nm using a Nanodrop 2000 (Thermoscientific, Waltham, MA, USA) and sequence derived extinction coefficients (http://web.expasy.org/protparam/). Proteins and compounds were degassed at 30°C directly before analysis. Compounds at 100 μM prepared in ITC buffer (40 mM HEPES, 500 mM NaCl, 0.25 mM TCEP, pH 8.0) and to a final DMSO concentration of 1% were titrated into 200 μL protein solutions prepared at 10 μM, 1% DMSO in the cell. All experiments used phosphorylated forms of CDK1 and CDK2 (on T161 or T160 respectively). For experiments carried out in the absence of cyclin, proteins were prepared on ice to a final concentration of 10 μM in ITC buffer and supplemented with 1% DMSO.

[4] = target: T4, phosphorylated monomeric CDK1 (Homo sapiens, UniProt P06493); assay: biochemical; type: binding; details: phosphorylated monomeric (cyclin-free) CDK1; 30°C; n = 2, ± SD; read-out: ITC Kd CDK1
T4 construct: Full-length human CDK1 was expressed in insect cells either untagged (from pVL1393) or as a 3C-protease cleavable GST fusion; GST (N, cleaved yes); made in house; host or cells: insect cells (Sf9 baculovirus)
Description: as §2

[5] = target: T5, phosphorylated monomeric CDK2 (Homo sapiens, UniProt P24941); assay: biochemical; type: binding; details: phosphorylated monomeric (cyclin-free) CDK2; 30°C; n = 2, ± SD; read-out: ITC Kd CDK2
T5 construct: Human CDK2 (encompassing full length residues 1-298); GST (N, cleaved yes); made in house; host or cells: E. coli
Description: as §2

[6] = target: T6, GST-tagged unphosphorylated CDK1 (Homo sapiens, UniProt P06493); assay: biochemical; type: binding; details: unphosphorylated monomeric GST-CDK1; 20°C; duplicate, ± SD; read-out: SPR Kd CDK1
T6 construct: Full-length human CDK1 was expressed in insect cells either untagged (from pVL1393) or as a 3C-protease cleavable GST fusion; made in house; host or cells: insect cells (Sf9 baculovirus)
Description: (§3) SPR ligand interactions assays were performed on a Biacore S200 (GE Healthcare Life Sciences) at 20°C using multi-cycle settings. GST-tagged unphosphorylated CDK1 and CDK2 were immobilised onto the surface of a CM5 chip pre-immobilised with anti-GST antibody, provided as part of the GST-capture kit (GE Healthcare Life Sciences, catalogue number BR100223) following the GST immobilisation kit instructions. As a control, recombinant GST was immobilised onto the designated control flow cell. […] Preceding injection of each compound, three cycles of buffer injections were carried out over all surfaces (30 μL/min for 60 s with 360 s dissociation). Compounds were then injected over all surfaces (from low to high concentration) for 60 s at 30 μL/min before being allowed to dissociate for 360 s to record dose-responses. […] The experiment was conducted in SPR running buffer (20 mM HEPES, 150 mM NaCl, 0.01% Tween-20®, 1% DMSO, pH 7.4) and used an 8-point DMSO solvent correction (preparation of DMSO in DMSO-free SPR buffer to final concentrations of: 0.2%, 0.4%, 0.6%, 0.8% 1%, 1.2%, 1.4%, 1.6%) to account for any bulk flow interactions.

[7] = target: T7, GST-tagged unphosphorylated CDK2 (Homo sapiens, UniProt P24941); assay: biochemical; type: binding; details: unphosphorylated monomeric GST-CDK2; 20°C; duplicate, ± SD; read-out: SPR Kd CDK2
T7 construct: Human CDK2 (encompassing full length residues 1-298); made in house; host or cells: E. coli BL21(DE3)STAR
Description: as §3

CDK1-cyclin B [8] = target: T3, CDK1-cyclin B; assay: biochemical; details: ADP-Glo, 20 μM ATP, 20 μM peptide, 4 nM CDK1-cyclin B
Description: (§4) Briefly, the 5 inhibitors in the study were titrated against phosphorylated CDK2–cyclin A and CDK1–cyclin B, with reaction initiated through addition of ATP and substrate peptide HHASPRK (Enzo Scientific). ATP to ADP conversion was assessed using the ADP-Glo assay (Promega) essentially as described by the manufacturers. […] Reactions were initiated by the addition of 20 μM ATP and 20 μM peptide. All activity assays were performed in triplicate in white low volume 384-well plates using a PheraStar plate reader (BMG).

CDK2-cyclin A [9] = target: T8, CDK2-cyclin A (Homo sapiens, UniProt P24941); assay: biochemical; set-up: Human CDK2 (encompassing full length residues 1-298); GST (N, cleaved yes); made in house; host or cells: E. coli; details: ADP-Glo, 20 μM ATP, 20 μM peptide, 1.5 nM CDK2-cyclin A
Description: as §4

CDK2-cyclin A [10] = target: T8, CDK2-cyclin A; assay: biochemical; type: binding; set-up: Human CDK2 (encompassing full length residues 1-298); GST (N, cleaved yes); made in house; host or cells: E. coli (CDK2 and cyclin A2); details: phosphorylated CDK2-cyclin A complex; 30°C; n = 2, ± SD; read-out: ITC Kd CDK2A
Description: as §2

CDK2-cyclin A [11] = details: radiolabelled γ33P-ATP kinase assay; ref Lane et al., 2001; read-out: IC50 Published measurements CDK2A; cited from earlier work
[12] = DSF, phosphorylated monomeric CDK1, 10 μM inhibitor

T1 sequence (P06493 whole entry, the tested form may be a part): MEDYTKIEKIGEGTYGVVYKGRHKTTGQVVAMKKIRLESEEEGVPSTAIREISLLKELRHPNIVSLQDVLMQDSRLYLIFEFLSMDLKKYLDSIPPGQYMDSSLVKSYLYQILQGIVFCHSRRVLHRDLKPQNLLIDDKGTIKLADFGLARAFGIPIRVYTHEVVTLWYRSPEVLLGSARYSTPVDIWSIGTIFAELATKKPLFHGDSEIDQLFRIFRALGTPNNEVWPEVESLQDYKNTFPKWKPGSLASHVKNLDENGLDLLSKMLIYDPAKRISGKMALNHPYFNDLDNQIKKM
T3 sequence (P06493 whole entry, the tested form may be a part): as above
T3 sequence (P14635 with tags, fused parts or gaps C167S/C238S/C350S partner limits assumed): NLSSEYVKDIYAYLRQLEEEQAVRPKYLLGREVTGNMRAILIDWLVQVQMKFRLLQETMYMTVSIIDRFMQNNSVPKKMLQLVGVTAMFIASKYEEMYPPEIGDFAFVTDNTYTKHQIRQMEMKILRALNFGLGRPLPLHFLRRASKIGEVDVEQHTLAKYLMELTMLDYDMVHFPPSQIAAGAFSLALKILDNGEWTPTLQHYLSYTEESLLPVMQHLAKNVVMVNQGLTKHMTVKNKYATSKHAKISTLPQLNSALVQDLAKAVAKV
T4 sequence (P06493 whole entry, the tested form may be a part): as the sequence (P06493 whole entry, the tested form may be a part) above
T6 sequence (P06493 whole entry, the tested form may be a part): as above

SMILES: Cc1ncc(-c2ccnc(Nc3ccc(S(C)(=O)=O)cc3)n2)n1C(C)C [AZD5438]
- ΔTm at 10 µM (monomeric CDK1; [12]): -2.6 °C
- IC50 (CDK1-cyclin B [1]): 16 nM

- ΔTm at 10 µM (monomeric CDK1; [12]): 0.9 °C
- ΔTm at 10 µM (monomeric CDK2): 7.3 °C
SMILES: CN1CC[C@H](c2c(O)cc(O)c3c(=O)cc(-c4ccccc4Cl)oc23)[C@H](O)C1 [Alvocidib]

SMILES: CCn1cnc2c(Nc3cccc(Cl)c3)nc(NC3CCCCC3N)nc21 (stereo not shown) [CGP74514A]
- Kd (CDK1-cyclin B [3]): 950 ± 50 nM
- Kd [4]: > 20000 nM
- Kd [5]: 715 ± 15 nM
- Kd [6]: 13500 nM
- Kd [7]: 312 ± 52 nM
- ΔTm at 10 µM (monomeric CDK1): -3.3 °C
- ΔTm at 10 µM (monomeric CDK2): 5.2 °C
- IC50 (CDK1-cyclin B [8]; read-out: IC50 Lab measurements CDK1B): 833 nM
- Ki (CDK1-cyclin B [8]; read-out: Ki (in parenthesis) Lab measurements CDK1B): 463 nM
- IC50 (CDK1-cyclin B [2]; ref Imbach et al., 1999): 25 nM
- IC50 (CDK2-cyclin A [9]; read-out: IC50 Lab measurements CDK2A): 33 nM
- Ki (CDK2-cyclin A [9]; read-out: Ki (in parenthesis) Lab measurements CDK2A): 18.3 nM
- Kd (CDK2-cyclin A [10]): 224 ± 14 nM
